Reference: patent publication US20230212653A1, “METHODS AND MATERIALS FOR ASSESSING HOMOLOGOUS RECOMBINATION DEFICIENCY IN BREAST CANCER SUBTYPES” (Myriad Genetics, Inc., priority 2021, published 2023)

Test system: triple negative breast cancer (TNBC)
Assay: Pathologic response of a neoadjuvant TNBC cohort treated with cisplatin (Example 6)
Type: in vivo, human
Settings: for PR = yes, % response / pCR = yes, % response: secondary analysis; for pCR = yes, % response: n=51
Protocol: Analysis of a neoadjuvant TNBC cohort treated with cisplatin was examined relative to the relationship between all three HRD scores and response. All p values were from logistic regression models with response to cisplatin as the dependent variable.
HR Deficiency status was determined for 62 of the 70 samples (70 individual patients) received from a cisplatin cohort (8 had insufficient tumors for analysis). Of these, 31 (50%) were HR deficient, 22 (35%) were non-HR deficient, and 9 (15%) were undetermined. FIG. 15 provides a histogram showing the distribution of HRD scores in the cohort. Scores ≥42 were considered to have high HRD (see also, Example 5). […] Pathologic complete response (pCR), which is associated with long-term survival, was defined as a residual cancer burden (RBC) of 0 and observed in 11/59 (19%) samples. […] These overall response rates correlated with monotherapy expectations.
Statistical analyses followed a predefined Statistical Analysis Plan (SAP), which included primary, secondary, and BRCA wild-type subset analyses.

SMILES: N.N.[Cl][Pt][Cl] [cisplatin]
- PR = yes, % response (BRCA Mutant): 5 (55.6%)
- pCR = yes, % response (BRCA Mutant): 3 (33.3%)
- PR = yes, % response (BRCA Non-mutant): 13 (31.0%)
- pCR = yes, % response (BRCA Non-mutant): 5 (11.9%)
- Pathologic complete response (pCR) rate (whole cisplatin cohort, 11/59 samples, pCR = residual cancer burden 0): 19%
- Pathologic response (PR) rate (whole cisplatin cohort, 22/59 samples, PR = residual cancer burden 0 or 1): 37%
